Values joined by “and” are separate entries in the source; they are usually repeats but may differ in a detail not shown here. Equal values may be shown once.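 A five-concentration, 48-hour dose response in 96-well plates underlies each endpoint, interpolated linearly between surrounding concentrations. GI50 marks 50% less growth. TGI is the concentration that stops growth completely.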 *1 amine or outer side, *2 acyl side, *3 side chain or, on linkers, in order; H or OH if unused. Where a SMILES comes first, the peptide text is derived from it. Bridges are numbered along the chain shown (N, C = ends). [ ]: non-standard residue; d: D form. The star is where a group is joined. Phe(3,5-F2) = N[C@@H](Cc1cc(F)cc(F)c1)C(=O)O; Pro(4R-Me) = C[C@H]1CN[C@H](C(=O)O)C1; aThr = C[C@H](O)[C@H](N)C(=O)O; Pip = O=C(O)[C@@H]1CCCCN1; X10 = Fc1cc(C2CC2)ccc1N*; CO = O=C([*:1])[*:2]
Assays:
Assay in all cases: NCI anticancer screen, dose series, 48 h
[1] = tested on: MDA-MB-435
[2] = tested on: HCC-2998 colon
[3] = tested on: SN12C renal
[4] = tested on: SF-539 CNS
[5] = tested on: T-47D breast
[6] = tested on: U251 CNS
[7] = tested on: NCI-H23 lung
[8] = tested on: M14 melanoma

SMILES	TGI [1] [µM]	TGI [2] [µM]	TGI [3]	TGI [4] [µM]	TGI [5]	TGI [6]	TGI [7]	TGI [8] [µM]	GI50 [1] [µM]	GI50 [2]	GI50 [3]	GI50 [4]	GI50 [5] [µM]	GI50 [6]	GI50 [7]	GI50 [8] [µM]
Fc1ccc(NC(=S)SCc2ccc3c(c2)OCO3)cc1F	51.8	71.5	39.4 µM	53.5	33 µM	43.1 µM	51.6 µM	39.1								
CN1CCCCC1CCN1c2ccccc2Sc2ccc(Cl)cc21 (stereo unspecified)	4.04	5.85	13.9 µM	5.42	18.8 µM	6.76 µM	26.8 µM	3.97	1.86	2.5 µM	3.65 µM	2.29 µM	4.25	2.59 µM	10.7 µM	2.02
C[C@@H]1C[C@H]2C(=O)O[C@@H](C)[C@H](NC(=O)[C@H](Cc3cc(F)cc(F)c3)NC(=O)Nc3ccc(C4CC4)cc3F)C(=O)N3CCC[C@H]3C(=O)N3CCCC[C@H]3C(=O)N[C@@H](C)C(=O)N2C1 ({X10-CO}-[Phe(3,5-F2)][aThr]P[Pip]A[Pro(4R-Me)]; ester 2-C)	2.71	1.78	42.7 µM	3.56	> 22.1 µM	> 46 µM	35.3 µM	2.41	0.0423	0.0402 µM	0.0401 µM	0.0752 µM	0.0448	0.0479 µM	0.0522 µM	0.0436
O=C1NC(=NCCc2cccc(F)c2)S/C1=C\c1ccc2ncccc2c1	1.19	> 25	> 25 µM	> 25	> 25 µM	> 25 µM	> 25 µM	> 25	0.312	> 25 µM	> 16 µM	1.59 µM	6.89	1.46 µM	19.2 µM	3.6
COc1ccc2c(c1)sc1nc(-c3ccccc3)c(-c3cccc4ccccc34)n12		36.6	> 100 µM		> 62.2 µM	> 100 µM	> 100 µM	> 100		1.53 µM	1.02 µM	0.385 µM	4.38	0.447 µM	1.21 µM	0.475
COc1cc(/C=N\NC(=O)CN2CCN(c3cc4c(cc3F)c(=O)c(C(=O)N/N=C/c3cc(OC)c(OC)c(OC)c3)cn4C3CC3)CC2)cc(OC)c1OC	0.559	0.33	0.601 µM	0.522	0.767 µM	> 100 µM	0.605 µM	> 49.5	0.237	0.178 µM	0.225 µM	0.212 µM	0.255	0.328 µM	0.237 µM	0.429
NS(=O)(=O)c1ccc2c(c1)OCCOCCOCCOCCO2	> 100	> 100	> 100 µM	> 100	> 100 µM		> 100 µM	> 100								
COC(=O)/C=C1\S/C(=N\NC(=O)c2cc3ccc2/C=C\c2ccc(cc2)/C=C\3)N(c2ccccc2)C1=O	> 100	3.45	5.94 µM	3.32	3.65 µM	4 µM	4.15 µM	15.4	5.44	1.78 µM	2.27 µM	1.79 µM	1.54	1.89 µM	1.95 µM	3.27
Cc1ccsc1C(=S)Nc1ccc(Cl)c(/C=N/OC(C)(C)C)c1	> 100	48.5	> 100 µM	> 100	> 100 µM	79.3 µM	> 100 µM	> 100								
Cc1cc(-c2nc(C(=O)Nc3cc4oc(N5CCOCC5)nc4nc3N3CC[C@@H](O)C3)co2)ccn1	> 100	> 100	> 100 µM	> 100	> 100 µM	> 100 µM	> 100 µM	> 100	40.7	55 µM	26 µM	24 µM	22.1	74.3 µM	28.1 µM	35.9
COc1cccc(-c2cc(-c3cccc(NS(C)(=O)=O)c3)nc(N)c2C#N)c1O	0.151	> 27.1	> 100 µM	> 100	58.6 µM	> 100 µM	> 100 µM	> 100	0.0275	0.328 µM	0.505 µM	0.154 µM	0.317	0.127 µM	0.341 µM	0.0837
CCC(=O)[C@H](C)[C@@H](OC(=O)[C@H](C)CC)[C@H](C)[C@H]1OC(CC)=C(C)C(=O)[C@@H]1C	56.1		29.8 µM	33.1	> 100 µM	35.8 µM	92.4 µM	72.5	21.5		15.4 µM	18.1 µM	18.1	17.6 µM	19.6 µM	22.8
COc1cc2c(cc1OCCCCN1CCN(CC(=O)Nc3ccc(Cl)cc3C(=O)c3ccccc3Cl)CC1)N=CC1CCCN1C2=O (stereo unspecified)	0.367	0.343	1.14 µM	0.501		1.06 µM	0.446 µM		0.188	0.194 µM	0.297 µM	0.236 µM		0.327 µM	0.206 µM	
CCOC1Oc2ccccc2C(=O)/C1=C/Nc1ccc(C(C)=O)cc1 (stereo unspecified)	61.9	35.4	47.8 µM	56.6	> 100 µM	67.5 µM	36.2 µM	35.9	24.3	15.9 µM	19.4 µM	23.9 µM	62.7	23.9 µM	13.9 µM	17.4
Nc1nc(-n2c(-c3ccccc3)nc3c(Br)cc(Br)cc3c2=O)nnc1-c1cccc(Cl)c1Cl	6.81	15.5	> 100 µM	40.4	> 100 µM	27.1 µM	53.1 µM	8.42	2.18	3.42 µM	18.8 µM	7.8 µM	> 100	6.87 µM	15.7 µM	2.64
C=CCOc1ccc2c(C)cc(=O)oc2c1C	> 100	> 100	> 100 µM	> 100	> 100 µM	> 100 µM	> 100 µM	> 100								
Cc1ccc(NC(=O)Nc2ccc(-c3cccnc3)cc2N2CCC(CO)CC2)cc1		> 100	> 100 µM	4.67	> 100 µM	6.81 µM		13.9		3.21 µM	4.49 µM	1.68 µM	3.9	2.02 µM		2.95
CO/C(=N\N=C\c1ccc(C(F)(F)F)cc1)c1ccncc1	> 10	> 10	> 10 µM		> 10 µM	> 10 µM	> 10 µM	> 10								
C[C@@H](Oc1cc(-n2cnc3ccc(CN4CCN(C)CC4)cc32)sc1C(N)=O)c1ccccc1C(F)(F)F			12.1 µM and > 10 µM	2.09	21.4 µM and > 10 µM	15.6 µM and > 10 µM	13.2 µM and > 10 µM	2.31		< 0.0161 µM and 0.0397 µM	0.116 µM and 0.2 µM	0.0369 µM and 0.0302 µM	3.35	< 0.0137 µM and 0.0255 µM	< 0.0114 µM and 0.0145 µM	0.0123
CCN1CCN(Cc2ccc(NC(=O)c3cccc(C#Cc4cccc5[nH]nc(N)c45)c3)cc2C(F)(F)F)CC1	1.57		1.93 µM	0.709	3.39 µM			0.547	0.339		0.584 µM	0.205 µM	0.975			0.0622
C=CCO[C@H]1CO[C@H]2[C@@H]1OC[C@@H]2Oc1ccc(Nc2ccnc(Nc3ccc(O[C@H]4CO[C@H]5[C@@H]4OC[C@@H]5OCC=C)c(Cl)c3)n2)cc1Cl	3.06	3.43	3.33 µM	3.25		3.83 µM	3.71 µM	3.4	1.67	1.94 µM	1.68 µM	1.83 µM		1.85 µM	1.79 µM	1.77
CCOC(=O)Cn1c(C(F)(F)F)nc2nc(Cl)c(Cl)nc21	> 100		> 100 µM	> 85.4	> 100 µM	> 100 µM	> 87.4 µM	> 100								
CC(C)=CCC\C(C)=C/C=C/C(C)=C\C=C\C(C)=C/C=C/C=C(C)\C=C\C=C(C)/C=C/C=C(/C)CCC=C(C)C	> 100	> 100	> 100 µM	> 100				> 100								
CC1CCc2nc[nH]c(=O)c21 (stereo unspecified)	> 100	> 100	> 100 µM	> 100	> 100 µM		> 100 µM	> 100	> 100	> 100 µM	> 100 µM	> 100 µM	> 100		> 100 µM	> 100
